Results published in US10570148B2, “N-alkyl-2-phenoxyethanamines, their preparation and use” (The Trustees of Columbia University In the City of New York, priority 2013, dated 2020).
Values belong to the molecule of their own block, whether it stands above or below them.

What was measured:
RBP4-TTR interaction [1] = target: T1, RBP4-TTR interaction (Homo sapiens, UniProt P02753); assay: TR-FRET (HTRF) assay for retinol-induced RBP4-TTR interaction; assay type: biochemical; design: human RBP4 fragment (amino acids 19-201); host or cells: Gold(DE3)pLysS E. coli strain (Stratagene), pMAL-c4x vector; conditions: analogs, present-tense paper example
Description: TR-FPET Assay for Retinol-induced RBP4-TTR Interaction
Binding of a desired RBP4 antagonist displaces retinol and induces hindrance for RBP4-TTR interaction resulting in the decreased FRET signal (FIG. 7). Bacterially expressed MBP-RBP4 and untagged TTR were used in this assay. For the use in the TR-FRET assay the maltose binding protein (MBP)-tagged human RBP4 fragment (amino acids 19-201) was expressed in the Gold(DE3)pLysS E. coli strain (Stratagene) using the pMAL-c4x vector. Following cell lysis, recombinant RBP4 was purified from the soluble fraction using the ACTA FPLC system (GE Healthcare) equipped with the 5-ml the MBP Trap HP column. Human untagged TTR was purchased from Calbiochem. Untagged TTR was labeled directly with Eu^3+ Cryptate-NHS using the HTRF Cryptate Labeling kit from CisBio following the manufacturer's recommendations. HTRF assay was performed in white low volume 384 well plates (Greiner-Bio) in a final assay volume of 16 μl per well. The reaction buffer contained 10 mM Tris-HCl pH 7.5, 1 mM DTT, 0.05% NP-40, 0.05% Prionex, 6% glycerol, and 400 mM KF. Each reaction contained 60 nM […] and 2 nM TTR-Eu along with 26.7 nM of anti-MBP antibody conjugated with d2 (Cisbio). Titration of test compounds in this assay was conducted in the presence of 1 μM retinol. All reactions were assembled in the dark under dim red light and incubated overnight at +4° C. wrapped in aluminum foil. TR-FRET signal was measured in the SpectraMax M5e Multimode Plate Reader (Molecular Device). Fluorescence was excited at 337 nm and two readings per well were taken: Reading 1 for time-gated energy transfer from Eu(K) to d2 (337 nm excitation, […] emission, counting delay 75 microseconds, counting window 100 microseconds) and Reading 2 for Eu(K) time-gated fluorescence (337 nm excitation, 620 rum emission, counting delay 400 microseconds, counting window 400 microseconds). The TR-FRET signal was expressed as the ratio of fluorescence intensity: Flu665/Flu620×10,000.

RBP4 [2] = target: T2, RBP4 (Homo sapiens, UniProt P02753); assay: Scintillation proximity RBP4 binding assay (SPA); design: Untagged human RBP4 purified from urine of tubular proteinuria patients; purchased Fitzgerald Industries International; host or cells: urine of tubular proteinuria patients; conditions: analogs, present-tense paper example
Procedure: Scintillation Proximity RBP4 Binding Assay
Untagged human RBP4 purified from urine of tubular proteinuria patients was purchased from Fitzgerald Industries International. It was biotinylated using the EZ-Link Sulfo-NHS-LC-Biotinylation kit from Pierce following the manufacturer's recommendations. Binding experiments were performed in 96-well plates (OptiPlate, PerkinElmer) in a final assay volume of 100 μl per well in SPA buffer (1×PBS, pH 7.4, 1 mM EDTA, 0.1% BSA, 0.5% CHAPS). The reaction mix contained 10 nM ^3H-Retinol (48.7 Ci/mmol; PerkinElmer), 0.3 mg/well Streptavidin-PVT beads, 50 nM biotinylated RBP4 and a test compound. Nonspecific binding was determined in the presence of 20 µM of unlabeled retinol. The reaction mix was assembled in the dark under dim red light. The plates were sealed with clear tape (TopSeal-A: 96-well microplate, PerkinElmer), wrapped in the aluminum foil, and allowed to equilibrate 6 hours at room temperature followed by overnight incubation at +4° C. Radiocounts were measured using a TopCount NXT counter (Packard Instrument Company).

Abca4−/− mice = conditions: cited from earlier work
mice = conditions: cited from earlier work
[3] = in vivo; cited from earlier work
RBP4-TTR interaction [4] = target: T1, RBP4-TTR interaction; conditions: cited from earlier work
RBP4 [5] = target: T2, RBP4; conditions: cited from earlier work
[6] = system: retinal pigment epithelium cells; conditions: many cell types, including the retinal pigment epithelium cells; cited from earlier work

Compound: CC(C)c1ccccc1OCCN(C)C(=O)Nc1ccccc1C(=O)O [Compound 17, 2-(3-(2-(2-Isopropylphenoxy)ethyl)-3-methylureido)benzoic Acid]
melting point: 146 to 149 °C

Compound: Cc1cc(C(=O)O)nc(N(C)CCOc2cc(C(F)(F)F)cc(C(F)(F)F)c2)n1 [Compound 39, 2-((2-(3,5-bis(trifluoromethyl)phenoxy)ethyl)(methyl)amino)-6-methylpyrimidine-4-carboxylic acid]
antagonism of retinol-dependent RBP4-TTR interaction (HTRF) (RBP4-TTR interaction [1]): antagonize retinol-dependent RBP4-TTR interaction
RBP4 binding (SPA) (RBP4 [2]): bind to RBP4

Compound: Cc1cc(C(=O)O)nc(N(C)CCOc2ccccc2C(C)(C)C)n1 [Compound 37, 2-((2-(2-(tert-butyl)phenoxy)ethyl)(methyl)amino)-6-methylpyrimidine-4-carboxylic acid]
antagonism of retinol-dependent RBP4-TTR interaction (HTRF) (RBP4-TTR interaction [1]): antagonize retinol-dependent RBP4-TTR interaction
RBP4 binding (SPA) (RBP4 [2]): bind to RBP4

Compound: CC1=C(/C=C/C(C)=C/C=C/C(C)=C/C(=O)Nc2ccc(O)cc2)C(C)(C)CCC1 [fenretinide, N-(4-hydroxy-phenyl)retinamide]
A2E production (Abca4−/− mice; Abca4−/− mice, animal model of excessive bisretinoid accumulation): reduced A2E production
ocular all-trans retinol uptake (Abca4−/− mice; mouse, in vivo): inhibit ocular all-trans retinol uptake
visual cycle (Abca4−/− mice; mouse, in vivo): slow down the visual cycle
formation of hemangiosarcomas (mice): stimulate formation of hemangiosarcomas
serum RBP4 and retinol [3]: reduce serum RBP4 and retinol
disruption of the RBP4-TTR interaction (RBP4-TTR interaction [4]): disrupt the RBP4-TTR interaction
binding to RBP4 (RBP4 [5]): bind to RBP4
displacement of all-trans retinol from RBP4 (RBP4 [5]): displace all-trans retinol from RBP4
induction of apoptosis [6]: extremely active inducer of apoptosis

Compound: COC(=O)c1cc(C)nc(N(C)CCOc2ccccc2C(C)(C)C)n1 [Compound 36, methyl 2-((2-(2-(tert-butyl)phenoxy)ethyl)(methyl)amino)-6-methylpyrimidine-4-carboxylate]
antagonism of retinol-dependent RBP4-TTR interaction (HTRF) (RBP4-TTR interaction [1]): antagonize retinol-dependent RBP4-TTR interaction
RBP4 binding (SPA) (RBP4 [2]): bind to RBP4

Compound: CN(CCOc1ccccc1C(C)(C)C)C(=O)Nc1ccncc1C(=O)O [Compound 18, 4-(3-(2-(2-(tert-butyl)phenoxy)ethyl)-3-methylureido)nicotinic Acid]
melting point: 218 to 220 °C

Compound: COC(=O)c1cc(C)nc(N(C)CCOc2cc(C(F)(F)F)cc(C(F)(F)F)c2)n1 [Compound 38, methyl 2-((2-(3,5-bis(trifluoromethyl)phenoxy)ethyl)(methyl)amino)-6-methylpyrimidine-4-carboxylate]
antagonism of retinol-dependent RBP4-TTR interaction (HTRF) (RBP4-TTR interaction [1]): antagonize retinol-dependent RBP4-TTR interaction
RBP4 binding (SPA) (RBP4 [2]): bind to RBP4

Compound: CN(CCOc1ccc(Cl)cc1C(C)(C)C)C(=O)c1cn2ncccc2n1 [Compound 21, N-(2-(2-(tert-butyl)-4-chlorophenoxy)ethyl)-N-methylimidazo[1,2-b]pyridazine-2-carboxamide]
melting point: 73 to 78 °C

More lines, now with the values ahead:

melting point: 186 to 190 °C
Compound: CN(CCOc1ccccc1C(C)(C)C)C(=O)c1n[nH]c2ccc(F)cc12 [Compound 22, N-(2-(2-(tert-butyl)phenoxy)ethyl)-5-fluoro-N-methyl-1H-indazole-3-carboxamide]

melting point: 157 to 159 °C
Compound: CN(CCOc1ccccc1C(C)(C)C)C(=O)c1n[nH]c2ncccc12 [Compound 24, N-(2-(2-(Tert-butyl)phenoxy)ethyl)-N-methyl-1H-pyrazolo[3,4-b]pyridine-3-carboxamide]

melting point: 98 to 101 °C
Compound: CN(CCOc1ccccc1C(C)(C)C)C(=O)C(=O)O [Compound 13, 2-((2-(2-(Tert-butyl)phenoxy)ethyl)(methyl)amino)-2-oxoacetic Acid]

melting point: 116 to 120 °C
Compound: CN(CCOc1ccccc1C(C)(C)C)C(=O)c1nnc2n1CCOC2 [Compound 25, N-(2-(2-(Tert-butyl)phenoxy)ethyl)-N-methyl-6,8-dihydro-5H-[1,2,4]triazolo[3,4-c][1,4]oxazine-3-carboxamide]

melting point: 233 to 237 °C
Compound: CN(CCOc1ccccc1C(C)(C)C)C(=O)c1n[nH]c2c1CCN(S(C)(=O)=O)C2 [Compound 33, N-(2-(2-(Tert-butyl)phenoxy)ethyl)-N-methyl-6-(methylsulfonyl)-4,5,6,7-tetrahydro-1H-pyrazolo[3,4-c]pyridine-3-carboxamide]

melting point: 159 to 161 °C
Compound: CN1CCc2c(C(=O)N(C)CCOc3ccccc3C(C)(C)C)n[nH]c2C1 [Compound 34, N-(2-(2-(Tert-butyl)phenoxy)ethyl)-N,6-dimethyl-4,5,6,7-tetrahydro-1H-pyrazolo[3,4-c]pyridine-3-carboxamide]

melting point: 125 to 133 °C
Compound: CN(CCOc1ccccc1C(C)(C)C)C(=O)c1n[nH]c2c1CN(S(C)(=O)=O)C2 [Compound 28, N-(2-(2-(Tert-butyl)phenoxy)ethyl)-N-methyl-5-(methylsulfonyl)-1,4,5,6-tetrahydropyrrolo[3,4-c]pyrazole-3-carboxamide]

melting point: 226 to 230 °C
Compound: CN(CCOc1ccccc1C(C)(C)C)C(=O)c1n[nH]c2c1CN(S(C)(=O)=O)CC2 [Compound 30, N-(2-(2-(tert-butyl)phenoxy)ethyl)-N-methyl-5-(methylsulfonyl)-4,5,6,7-tetrahydro-1H-pyrazolo[4,3-c]pyridine-3-carboxamide]

melting point: 148 to 151 °C
Compound: CN(CCOc1ccccc1C(C)(C)C)C(=O)c1c[nH]nn1 [Compound 12, N-(2-(2-(Tert-butyl)phenoxy)ethyl)-N-methyl-1H-1,2,3-triazole-5-carboxamide]

melting point: 75 to 80 °C
Compound: CN(CCOc1ccccc1C(C)(C)C)C(=O)c1cn2ncccc2n1 [Compound 23, N-(2-(2-(Tert-butyl)phenoxy)ethyl)-N-methylimidazo[1,2-b]pyridazine-2-carboxamide]
